Data from patent US11174251B2, “Compositions and methods for inhibition of the JAK pathway” (Rigel Pharmaceuticals, Inc., priority 2010, dated 2021).
Structures can show the parent of a compound that is named as a salt.

Target: T1, JAK3 (Homo sapiens, UniProt P52333)
T1 construct: The Ramos B-cell line was acquired from ATCC (ATCC Catalog No. CRL-1596); host or cells: Ramos B-cell line (human)
T1 sequence (P52333 1-1124): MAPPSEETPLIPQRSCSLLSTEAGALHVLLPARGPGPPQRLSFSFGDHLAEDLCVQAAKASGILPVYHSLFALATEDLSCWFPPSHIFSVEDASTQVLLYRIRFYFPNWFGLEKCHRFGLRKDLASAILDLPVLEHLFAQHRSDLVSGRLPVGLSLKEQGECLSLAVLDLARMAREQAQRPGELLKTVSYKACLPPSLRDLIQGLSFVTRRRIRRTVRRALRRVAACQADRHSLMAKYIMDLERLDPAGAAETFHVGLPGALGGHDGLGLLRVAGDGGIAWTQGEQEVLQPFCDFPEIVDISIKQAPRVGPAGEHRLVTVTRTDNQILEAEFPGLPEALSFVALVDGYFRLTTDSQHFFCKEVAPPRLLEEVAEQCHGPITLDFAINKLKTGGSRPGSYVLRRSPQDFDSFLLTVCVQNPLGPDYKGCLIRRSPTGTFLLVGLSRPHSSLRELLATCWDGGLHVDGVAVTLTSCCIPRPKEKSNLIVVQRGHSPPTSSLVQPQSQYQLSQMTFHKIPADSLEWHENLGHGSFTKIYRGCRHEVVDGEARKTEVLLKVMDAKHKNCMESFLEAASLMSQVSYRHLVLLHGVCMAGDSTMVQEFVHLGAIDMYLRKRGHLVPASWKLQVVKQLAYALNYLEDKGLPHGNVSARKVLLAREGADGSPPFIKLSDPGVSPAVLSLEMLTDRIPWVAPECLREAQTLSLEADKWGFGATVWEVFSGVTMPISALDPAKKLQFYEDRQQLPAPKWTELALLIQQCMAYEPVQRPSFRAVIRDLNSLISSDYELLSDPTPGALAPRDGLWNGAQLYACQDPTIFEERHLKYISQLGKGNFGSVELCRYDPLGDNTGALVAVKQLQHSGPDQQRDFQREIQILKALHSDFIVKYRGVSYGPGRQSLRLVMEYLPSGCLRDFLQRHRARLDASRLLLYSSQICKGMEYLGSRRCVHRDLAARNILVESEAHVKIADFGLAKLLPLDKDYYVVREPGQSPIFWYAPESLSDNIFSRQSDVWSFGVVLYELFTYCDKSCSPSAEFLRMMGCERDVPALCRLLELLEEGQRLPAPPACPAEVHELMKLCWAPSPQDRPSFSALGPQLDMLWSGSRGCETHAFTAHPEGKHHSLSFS
Assay: Assay for CD23 expression on Ramos B-cells stimulated by IL-4 (Table IV: ability to inhibit JAK3 activity)
Type: cell-based
Conditions: tested under conditions described in Example 3 (so in the source)
How it was run: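 Human Ramos B cells in RPMI with 5% serum, pre-incubated 1 h at 37 °C with compound or DMSO, then stimulated with IL-4 (final 50 units/mL) for 20–24 h. Surface CD23 upregulation measured by FACS staining as readout of JAK1/JAK3–Stat-6 signalling.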

| SMILES | IC50 [nM] |
| --- | --- |
| COc1cccc(Nc2ncc(Br)c(Nc3ccc4oc(=O)[nH]c4c3)n2)c1F [Compound I-22, 5-(5-bromo-2-(2-fluoro-3-methoxyphenylamino)pyrimidin-4-ylamino)benzo[d]oxazol-2(3H)-one trifluoroacetate salt] | < 500 |
| CCOC(=O)c1c(C)cc(Nc2ncc(C)c(Nc3ccc4oc(=O)[nH]c4c3)n2)cc1OC [Compound I-128, ethyl 4-(4-(2,3-dihydro-2-oxobenzo[d]oxazol-5-ylamino)-5-methylpyrimidin-2-ylamino)-2-methoxy-6-methylbenzoate] | < 500 |
| CCN(c1cc(C)c(C)c(C)c1)c1ncc(C)c(Nc2ccc3oc(=O)[nH]c3c2)n1 [Compound I-139, N2-ethyl-N2-(3,4,5-trimethyl)phenyl-5-methyl-N4-(2-oxo-2,3-dihydro-1,3-benzoxazol-5-yl)-2,4-pyrimidinediamine] | > 10000 |
| COCCOc1c(C)ccc(Nc2ncc(Cl)c(Nc3ccc4oc(=O)[nH]c4c3)n2)c1F [Compound I-66, 5-(5-chloro-2-(2-fluoro-3-(2-methoxyethoxy)-4-methylphenylamino)pyrimidin-4-ylamino)benzo[d]oxazol-2(3H)-one trifluoroacetate salt] | < 500 |
| CCOc1cc(Nc2ncc(Cl)c(Nc3ccc4oc(=O)[nH]c4c3)n2)cc(C)c1C [Compound I-104, 5-(5-chloro-2-(3-ethoxy-4,5-dimethylphenylamino)pyrimidin-4-ylamino)benzo[d]oxazol-2(3H)-one ditrifluoroacetate salt] | < 500 |
| COc1cc(Nc2ncc(Cl)c(Nc3ccc4oc(=O)[nH]c4c3)n2)cc(C)c1C [Compound I-52, 5-(5-chloro-2-(3-methoxy-4,5-dimethylphenylamino)pyrimidin-4-ylamino)benzo[d]oxazol-2(3H)-one] | < 500 |
| [2H]C([2H])([2H])c1c(C)cc(Nc2ncc(Cl)c(Nc3ccc4oc(=O)[nH]c4c3)n2)cc1C [Compound I-36, 5-(5-chloro-2-(3,5-dimethyl-4-d3-methyl)phenylamino)pyrimidin-4-ylamino)benzo[d]oxazol-2(3H)-one trifluoroacetate salt] | < 500 |
| Cc1ccc(Nc2ncc(F)c(Nc3ccc4oc(=O)[nH]c4c3)n2)cc1C#N [Compound I-1, 5-(5-fluoro-4-(2-oxo-2,3-dihydrobenzo[d]oxazol-5-ylamino)pyrimidin-2-ylamino)-2-methylbenzonitrile formate salt] | < 500 |
| Cc1cc(Nc2ncc(Cl)c(Nc3ccc4oc(=O)[nH]c4c3)n2)cc(C)c1C [Compound I-6, 5-(5-chloro-2-(3,4,5-trimethylphenylamino)pyrimidin-4-ylamino)benzo[d]oxazol-2(3H)-one trifluoroacetate salt] | > 10000 |
| Cc1cc(Nc2ncc(Cl)c(Nc3ccc4oc(=O)[nH]c4c3)n2)cc(C)c1C#N [Compound I-69, 4-(5-chloro-4-(2-oxo-2,3-dihydrobenzo[d]oxazol-5-ylamino)pyrimidin-2-ylamino)-2,6-dimethylbenzonitrile] trifluoroacetate salt] | < 500 |
| COc1cc(Nc2ncc(C)c(Nc3cc(C)c4oc(=O)[nH]c4c3)n2)cc(C)c1C [Compound I-109, 5-(2-(3-methoxy-4,5-dimethylphenylamino)-5-methylpyrimidin-4-ylamino)-7-methylbenzo[d]oxazol-2(3H)-one trifluoroacetate trifluoroacetate salt] | < 500 |
| [2H]C([2H])([2H])c1c(C)cc(Nc2nccc(Nc3ccc4oc(=O)[nH]c4c3)n2)cc1C [Compound I-38, 5-(2-(3,5-dimethyl-4-d3-methyl)phenylamino)pyrimidin-4-ylamino)benzo[d]oxazol-2(3H)-one trifluoroacetate salt] | < 500 |
| Cc1cc(Nc2ncc(C(=O)O)c(Nc3ccc4oc(=O)[nH]c4c3)n2)cc(C)c1C [Compound I-49, 4-(2-Oxo-2,3-dihydro-benzooxazol-5-ylamino)-2-(3,4,5-trimethyl-phenylamino)-pyrimidine-5-carboxylic acid trifluoroacetate salt] | > 10000 |
| COc1cc(Nc2ncc(C)c(Nc3ccc4oc(=O)[nH]c4c3)n2)cc(C)c1F [Compound I-105, 5-(2-(4-fluoro-3-methoxy-5-methylphenylamino)-5-methylpyrimidin-4-ylamino)benzo[d]oxazol-2(3H)-one] | < 500 |
| COc1cc(Nc2ncc(C)c(Nc3ccc4oc(=O)[nH]c4c3)n2)cc(F)c1C [Compound I-120, 5-(2-(3-fluoro-5-methoxy-4-methylphenylamino)-5-methylpyrimidin-4-ylamino)benzo[d]oxazol-2(3H)-one trifluoroacetate salt] | < 500 |
| COC(=O)c1cc(Nc2ncc(C)c(Nc3ccc4oc(=O)[nH]c4c3)n2)cc(C)c1C [Compound I-144, N2-(3,4-dimethyl-5-methoxycarbonyl)phenyl-5-methyl-N4-(2-oxo-2,3-dihydro-1,3-benzoxazol-5-yl)-2,4-pyrimidinediamine] | < 500 |

Second part, the compound after the results:

| IC50 [nM] | SMILES |
| --- | --- |
| < 500 | COc1cc(Nc2ncc(F)c(Nc3ccc4oc(=O)[nH]c4c3)n2)cc(C)c1C [Compound I-195, 5-(2-(3-methoxy-4,5-dimethylphenylamino)-5-fluoropyrimidin-4-ylamino)benzo[d]oxazol-2(3H)-one trifluoroacetate salt] |
| < 500 | O=c1[nH]c2cc(Nc3nc(Nc4ccc(F)c(-c5cccnc5)c4)ncc3F)ccc2o1 [Compound I-206, 5-(2-(4-fluoro-3-(pyridin-3-yl)phenylamino)-5-fluoropyrimidin-4-ylamino)benzo[d]oxazol-2(3H)-one] |
| 500 to 5000 | COc1cc(Nc2ncc(F)c(Nc3cc(C)c4oc(=O)[nH]c4c3)n2)cc(C)c1F [Compound I-190, 5-(2-(4-fluoro-3-methoxy-5-methylphenylamino)-5-fluoropyrimidin-4-ylamino)-7-methylbenzo[d]oxazol-2(3H)-one trifluoroacetate salt] |
| < 500 | CN1C(=O)CCCc2cc(Nc3ncc(F)c(Nc4ccc5oc(=O)[nH]c5c4)n3)ccc21 [II-28, 7-(4-(2,3-dihydro-2-oxobenzo[d]oxazol-5-ylamino)-5-fluoropyrimidin-2-ylamino)-4,5-dihydro-1-methyl-1H-benzo[b]azepin-2(3H)-one trifluoroacetate salt] |
| 500 to 5000 | CC(C)c1ccc(Nc2ncc(F)c(Nc3ccc4oc(=O)[nH]c4c3)n2)cc1 [Compound I-200, 5-(2-(4-isopropylphenylamino)-5-fluoropyrimidin-4-ylamino)benzo[d]oxazol-2(3H)-one trifluoroacetate salt] |
| > 10000 | COC(=O)c1cnc(Nc2ccc3ccccc3c2)nc1Nc1ccc2oc(=O)[nH]c2c1 [II-7, 2-(Naphthalen-2-ylamino)-4-(2-oxo-2,3-dihydro-benzooxazol-5-ylamino)-pyrimidine-5-carboxylic acid methyl ester trifluoroacetate salt] |
| > 10000 | Cc1cnc(Nc2ccc(C#N)c(C)n2)nc1Nc1ccc2oc(=O)[nH]c2c1 [II-16, N2-(5-cyano-6-methylpyridin-2-yl)-5-methyl-N4-(2-oxo-2,3-dihydro-1,3-benzoxazol-5-yl)-2,4-pyrimidinediamine] |
| 500 to 5000 | Cc1ccc(Nc2ncc(C)c(Nc3ccc4oc(=O)[nH]c4c3)n2)nc1C [II-21, N2-(5,6-dimethylpyridin-2-yl)-5-methyl-N4-(2-oxo-2,3-dihydro-1,3-benzoxazol-5-yl)-2,4-pyrimidinediamine] |
| < 500 | Cc1cnc(Nc2ccc3c(c2)COC3=O)nc1Nc1ccc2oc(=O)[nH]c2c1 [II-10, 5-methyl-N4-(2-oxo-2,3-dihydro-1,3-benzoxazol-5-yl)-N2-(1-oxo-1,3-dihydro-isobenzofuran-5-yl)-2,4-pyrimidinediamine] |
| 500 to 5000 | COc1c(F)ccc(Nc2ncc(F)c(Nc3cc(F)c4oc(=O)[nH]c4c3)n2)c1F [Compound I-193, 5-(2-(2,4-difluoro-3-methoxyphenylamino)-5-fluoropyrimidin-4-ylamino)-7-fluorobenzo[d]oxazol-2(3H)-one trifluoroacetate salt] |
| < 500 | CC(=O)c1ccc(Nc2ncc(F)c(Nc3ccc4oc(=O)[nH]c4c3)n2)cc1 [Compound I-157, 5-(2-(4-acetylphenylamino)-5-fluoropyrimidin-4-ylamino)benzo[d]oxazol-2(3H)-one formate salt] |
